Key:
acute pain, bunionectomy = test: Efficacy (SPID48) of 3 to 2 product vs morphine vs oxycodone, bunionectomy study (Example 2); format: in vivo, human; conditions: for Mean SPID48 Score: 48 hr; for pain control by SPID48 (judged analgesic dose): low doses alone: morphine 6 mg, oxycodone 4 mg
analgesia = conditions: mouse, in vivo; cited from earlier work

Row | SMILES | Mean SPID48 Score (acute pain, bunionectomy; 6 mg q6h) | Mean SPID48 Score (acute pain, bunionectomy; 12 mg q6h) | pain control by SPID48 (judged analgesic dose) (acute pain, bunionectomy) | Mean SPID48 Score (acute pain, bunionectomy; 4 mg q6h) | Mean SPID48 Score (acute pain, bunionectomy; 8 mg q6h) | interaction with morphine, morphine-6-β-glucuronide, codeine, and 6-acetylmorphine (analgesia)
1 | CN1CC[C@]23c4c5ccc(O)c4O[C@H]2[C@@H](O)C=C[C@H]3[C@H]1C5 [Morphine, morphine] | 51 | 106 | gave pain control |  |  | 
2 | COc1ccc2c3c1O[C@H]1C(=O)CC[C@@]4(O)[C@@H](C2)N(C)CC[C@]314 [Oxycodone, oxycodone] |  |  | gave pain control | 60 | 99 | 
3 | CCC(=O)C(C[C@@H](C)N(C)C)(c1ccccc1)c1ccccc1 [L-methadone] |  |  |  |  |  | exhibited synergy

Reference: patent US20110046173A1 (priority 2009, published 2011)
